Experimental data published in patent publication US20140066394A1, “Substituted 6-(Benzylamino) Purine Riboside Derivatives, Use Thereof and Compositions Containing These Derivatives” (Biopatterns, S.R.O, priority 2009, published 2014).

Tests used:
[1] = system: promyelocytic HL-60 leukemia; test: In vitro cytotoxicity, Calcein AM assay, HL60; assay type: cell-based, human; conditions: 72 hours
From the text: (§1) Low cytotoxicity of the compounds is the major property determining the cosmetic use. One of the parameters used, as the basis for cytotoxicity assays, is the metabolic activity of viable cells. For example, a microtiter assay, which uses the Calcein AM, is now widely used to quantitate cell proliferation and cytotoxicity. For instance, this assay is used in drug screening programs and in chemosensitivity testing. Because only metabolically active cells cleave Calcein AM, these assays detect viable cells exclusively. The quantity of […] Calcein AM corresponds to the number of vital cells in the culture.
(§2) Human T-lymphoblastic leukemia cell line CEM; promyelocytic HL-60 and monocytic U937 leukemias; breast carcinoma cell lines MCF-7, BT549, MDA-MB-231; glioblastoma U87MG cells; cervical carcinoma cells HELA; sarcoma cells U2OS and Saos2; hepatocellular carcinoma HepG2; mouse fibroblasts NIH3T3; mouse immortalized bone marrow macrophages B2.4 and B10A.4; P388D1 and L1210 leukemia; B16 and B16F10 melanomas; human osteosarcoma HOS; human myeloid leukemia K-562; human skin melanoma G-361 were used for routine screening of compounds. The cells were maintained in Nunc/Corning 80 cm^2 plastic tissue culture flasks and cultured in cell culture medium (DMEM with 5 g/l glucose, 2 mM glutamine, 100 U/mL penicillin, 100 μg/mL streptomycin, 10% fetal calf serum and sodium bicarbonate).
(§3) The cell suspensions that were prepared and diluted according to the particular cell type and the expected target cell density (2.500-30.000 cells per well based on cell growth characteristics) were added by pipette ([…]) into 96/well microtiter plates. Inoculates were allowed a pre-incubation period of 24 hours at 37° C. and 5% CO2 for stabilisation. Four-fold dilutions of the intended test concentration were added at time zero in 20 μl aliquots to the microtiter plate wells. Usually, the compound tested was evaluated at six 4-fold dilutions. In routine testing, the highest well concentration was 100 μM, but it can be the matter of change dependent on the agent. All drug concentrations were examined in duplicates. Incubations of cells with the tested compounds lasted for 72 hours at 37° C., in 5% CO2 atmosphere and 100% humidity. At the end of the incubation period, the cells were assayed by using Calcein AM. Ten microliters of the stock solution were pipetted into each well and incubated for 1 hour. Fluorescence (FD) was measured with the Labsystem FIA Reader Fluoroscan Ascent (UK). The tumour cell survival (GI50) was calculated using the following equitation: TCS=(FDdrug exposed well/mean FDeontrol wells)×100%. The GI50 value, the drug concentration lethal to 50% of the tumour cells, was calculated from the obtained dose response curves.
(§4) Zero cytotoxicity of the novel compounds is the basic prerequisite for agricultural and tumor-unrelated applications. The cytoxicity of the novel compounds was tested on a panel of cell lines of different histogenetic and species origin (Table 9). We show herein that equal activities were found in all tumour cell lines tested, however, the non-malignant cells, e.g. NIH3T3 fibroblasts and normal human lymphocytes, were resistant to 2,6-disubstituted purine ribosides induced cytotoxicity. The compounds listed in Tab. 9 can be divided into 2 groups. The first group contains “classical cytokinins” represented by 6-substituted purine ribosides (which are known in the prior art). The second group contains the novel 2,6-disubstituted derivatives of these compounds. […] GI50 for NIH3T3 fibroblasts and normal human lymphocytes was always higher than 100 μM. The novel derivatives show no toxicity to normal and tumour cells in concentrations about 100 μM and thus are more suitable for agricultural applications than “classical cytokinins” (6-substituted purine riboside derivatives).

[2] = system: breast carcinoma cell line MCF-7; test: In vitro cytotoxicity, Calcein AM assay, MCF7; assay type: cell-based, human; conditions: 72 hours
From the text: as §1, §2, §3, §4

[3] = system: Human T-lymphoblastic leukemia cell line CEM; test: In vitro cytotoxicity, Calcein AM assay, CEM; assay type: cell-based; conditions: 72 hours
From the text: as §1, §2, §3, §4

[4] = system: human skin melanoma G-361; test: In vitro cytotoxicity, Calcein AM assay, G-361; assay type: cell-based; conditions: 72 hours
From the text: as §1, §2, §3, §4

[5] = system: human osteosarcoma HOS; test: In vitro cytotoxicity, Calcein AM assay, HOS; assay type: cell-based; conditions: 72 hours
From the text: as §1, §2, §3, §4

[6] = system: human myeloid leukemia K-562; test: In vitro cytotoxicity, Calcein AM assay, K-562; assay type: cell-based; conditions: 72 hours
From the text: as §1, §2, §3, §4

[7] = system: cytokinin-dependent tobacco callus Nicotiana tabacum L. cv. Wisconsin 38; test: Tobacco callus bioassay (stimulation of plant cell division); assay type: cell-based
Method: Cytokinin-dependent tobacco callus Nicotiana tabacum L. cv. Wisconsin 38 was maintained at 25° C. in darkness on modified MS medium, containing per 1 liter: 4 μmol of nicotinic acid, 2.4 μmol of pyridoxine hydrochloride, 1.2 μmol of thiamine, 26.6 μmol of glycine, 1.37 μmol of glutamine, 1.8 μmol of myo-inositol, 30 g of sucrose, 8 g of agar, 5.37 μmol of NAA and 0.5 μmol of the compound tested. Subcultivation was carried out every three weeks. Fourteen days before the bioassay, the callus tissue was transferred to the media without the compound tested. The biological activity was determined from the increase of the fresh callus weight after four weeks of cultivation. Five replicates were prepared for each concentration of the compound tested and the entire test was repeated twice. From the obtained data, the concentration with the highest activity was selected for each compound tested. Relative activity of the compound at this concentration was calculated (Table 8). The compounds to be tested were dissolved in dimethylsulfoxide (DMSO) and the solution brought up to 10^−3M with distilled water. […] The compounds listed in Table 8 are compared to a “classical cytokinin” kinetin riboside (compound known in the prior art—C=control).

[8] = system: β-adrenergic receptors; test: Isoproterenol-induced cAMP synthesis in rat C6 glioma (anti-inflammatory activity); assay type: cell-based; conditions: for Effect (modulation of isoproterenol-induced cAMP synthesis): added simultaneously with (−)-isoproterenol
Method: Anti-inflammatory activity of several of the 2-substituted 6-benzylaminopurine riboside derivatives of this invention was determined; kinetin riboside was also evaluated as a control. Rat C6 glioma (ATCC No. CCL107) was cultivated in monolayer in serum-free chemically defined medium containing Ham's F10/minimal essential medium (1:1 v/v), 2 mM L-glutamine, 1% (v/v) minimal essential medium vitamins (100×), 1% (v/v) minimal essential medium nonessential amino acids (100×), 100 U/mL penicillin, […], and 30 nM sodium selenite. Incubation was performed at 37° C. in a humidified atmosphere. The assays were performed in the logaritmic growth phase at a density of 2.5×10^5 cells/cm^2.
Intracellular cAMP synthesis was induced by addition of 5 mM (−)-isoproterenol; various amounts of test compounds were added at the same time as the (−)-isoproterenol. After […] incubation at 37° C., the medium was removed and the cellular amount of cAMP was determined using the cAMP-enzyme immunoassay kit from Amersham. The I50 value was determined from a dose-response curve in duplicate. The effect of nine purine analogues was measured after simultaneous addition with isoproterenol.
As P2Y1-like and A2 purinergic receptors, negatively and positively coupled to adenylate cyclase respectively, are present on rat C6 glioma as to be determined if the modulation of the synthesis of cAMP is due to inhibition of the activation of β-adrenergic receptors by isoproterenol are due to activation of purinergic receptors.

Compound | GI50 [1] [µM] | GI50 [2] [µM] | GI50 [3] [µM] | GI50 [4] [µM] | GI50 [5] [µM] | GI50 [6] [µM] | concentration with highest activity ([7]; increase of fresh callus weight after four weeks, tested 10^−8 M to 10^−4 M) | activity (%) [10^−5 mol · l^−1 C = 100%] ([7]; relative activity at the concentration with highest activity, kinetin riboside at 10^−5 mol/l = 100%) [%] | Effect (modulation of isoproterenol-induced cAMP synthesis) [8] | Effect (modulation of isoproterenol-induced cAMP synthesis) ([8]; listed as control) | IC50 ([8]; cellular cAMP by enzyme immunoassay, dose-response curve in duplicate, read-out: I50) [µM]
COc1cccc(CNc2ncnc3c2ncn3C2OC(CO)C(O)C2O)c1O (stereo not drawn) [2-hydroxy-3-methoxybenzylamino, reference compound] | 9.5 | > 100 | 40 | > 100 | > 100 | > 100 | – | – | – | – | –
COc1ccc(CNc2ncnc3c2ncn3[C@@H]2O[C@H](CO)[C@@H](O)[C@H]2O)c(O)c1 [2-hydroxy-4-methoxybenzylamino, reference compound] | 0.15 | 20 | 0.3 | > 100 | > 100 | 28 | – | – | – | – | –
OCC1OC(n2cnc3c(NCc4cc(Cl)ccc4O)ncnc32)C(O)C1O (stereo not drawn) [2-hydroxy-5-chlorobenzylamino, reference compound] | 1.6 | 32 | 2.4 | > 100 | > 100 | 36 | – | – | – | – | –
OC[C@H]1O[C@@H](n2cnc3c(NCc4cc(F)ccc4O)ncnc32)[C@H](O)[C@@H]1O [2-hydroxy-5-fluorobenzylamino, reference compound] | 24 | > 100 | 52 | > 100 | > 100 | > 100 | – | – | – | – | –
Cc1ccc(O)c(CNc2ncnc3c2ncn3C2OC(CO)C(O)C2O)c1 (stereo not drawn) [2-hydroxy-5-methylbenzylamino, reference compound] | 10 | 6.9 | 0.9 | > 100 | > 100 | 18 | – | – | – | – | –
COc1c(O)cccc1CNc1ncnc2c1ncn2[C@@H]1O[C@H](CO)[C@@H](O)[C@H]1O [2-methoxy-3-hydroxybenzylamino, reference compound] | 10 | > 100 | 1.9 | > 100 | > 100 | 16.5 | – | – | – | – | –
OC[C@H]1O[C@@H](n2cnc3c(NCc4ccco4)ncnc32)[C@H](O)[C@@H]1O [C, kinetin riboside, reference compound] | – | – | – | – | – | – | 10^−5 mol · l^−1 | 100 | inactive | none | –
COc1ccc(CNc2nc(Cl)nc3c2ncn3C2OC(CO)C(O)C2O)c(O)c1 (stereo not drawn) [Compound 11] | > 100 | > 100 | > 100 | > 100 | > 100 | > 100 | – | – | – | – | –
Cc1cccc(CNc2nc(Cl)nc3c2ncn3C2OC(CO)C(O)C2O)c1O (stereo not drawn) [Compound 13] | > 100 | > 100 | > 100 | > 100 | > 100 | > 100 | – | – | inhibition | – | 18.7 ± 4
